Read-outs that look alike come from different tables or passages of the source.
What was measured:
p110δ/p85α = p110δ/p85α (Homo sapiens (Human), UniProt O00329); assay: PI3K δ inhibition assay (TLC lipid kinase or HTRF); format: biochemical
Description: (§1) Class I PI3-Ks can be either purchased (p110α/p85α, p110β/p85α, p110δ/p85α from Upstate, and p110γ from Sigma) or expressed as previously described (Knight et al., 2004). IC50 values are measured using either a standard TLC assay for lipid kinase activity (described below) or a high-throughput membrane capture assay. Kinase reactions are performed by preparing a reaction mixture containing kinase, inhibitor (2% DMSO final concentration), buffer (25 mM HEPES, pH 7.4, 10 mM MgCl2), and freshly sonicated phosphatidylinositol (100 μg/ml). Reactions are initiated by the addition of ATP containing 10 μCi of γ-32P-ATP to a final concentration 10 or 100 μM and allowed to proceed for 5 minutes at room temperature. For TLC analysis, reactions are then terminated by the addition of […] 1N HCl followed by 160 μl CHCl3:MeOH (1:1). The biphasic mixture is vortexed, briefly centrifuged, and the organic phase is transferred to a new tube using a gel loading pipette tip precoated with CHCl3. This extract is spotted on TLC plates and developed for 3-4 hours in a 65:35 solution of n-propanol:1M acetic acid. The TLC plates are then dried, exposed to a phosphorimager screen (Storm, Amersham), and quantitated. For each compound, kinase activity is measured at 10-12 inhibitor concentrations representing two-fold dilutions from the highest concentration tested (typically, 200 μM).
(§2) Other commercial kits or systems for assaying PI3-K activities are available. The commercially available kits or systems can be used to screen for inhibitors and/or agonists of PI3-Ks including but not limited to PI 3-Kinase α, β, δ, and γ. Anr exemplary system is PI3-Kinase (human) HTRF™ Assay from Upstate. […] Briefly, the assay is a time resolved FRET assay that indirectly measures PIP3 product formed by the activity of a PI3-K. The kinase reaction is performed in a microtitre plate (e.g., a 384 well microtitre plate). The total reaction volume is approximately 20 ul per well. In the first step, each well receives 2 ul of test compound in 20% dimethylsulphoxide resulting in a 2% DMSO final concentration. Next, approximately 14.5 ul of a kinase/PIP2 mixture (diluted in 1× reaction buffer) is added per well for a final concentration of 0.25-0.3 ug/ml kinase and 10 uM PIP2. The plate is sealed and incubated for 15 minutes at room temperature. To start the reaction, 3.5 ul of ATP (diluted in 1× reaction buffer) is added per well for a final concentration of 10 uM ATP. The plate is sealed and incubated for 1 hour at room temperature. The reaction is stopped by adding 5 ul of Stop Solution per well and then 5 ul of Detection Mix is added per well. The plate is sealed, incubated for 1 hour at room temperature, and then read on an appropriate plate reader. Data is analyzed and IC50s are generated using GraphPad Prism 5.

p110α/p85α = p110α/p85α (Homo sapiens (Human), UniProt P42336); assay: PI3K α inhibition assay (TLC lipid kinase or HTRF); format: biochemical
Description: as §1, §2

p110β/p85α = p110β/p85α (Homo sapiens, UniProt P42338); assay: PI3K β inhibition assay (TLC lipid kinase or HTRF); format: biochemical; settings: read-out: PI3K β IC50
Description: as §1, §2

Balb/c splenic B cells = assay: B cell activation and proliferation assay (Alamar Blue); format: cell-based, mouse
Description: The ability of one or more subject compounds to inhibit B cell activation and proliferation is determined according to standard procedures known in the art. For example, an in vitro cellular proliferation assay is established that measures the metabolic activity of live cells. The assay is performed in a 96 well microtiter plate using Alamar Blue reduction. Balb/c splenic B cells are purified over a Ficoll-Paque™ PLUS gradient followed by magnetic cell separation using a MACS B cell Isolation Kit (Miletenyi). Cells are plated in 90 ul at 50,000 cells/well in B Cell Media (RPMI+10% FBS+Penn/Strep+50 uM bME+5 mM HEPES). A compound disclosed herein is diluted in B Cell Media and added in a 10 ul volume. Plates are incubated for 30 min at 37 C and 5% CO2 (0.2% DMSO final concentration). A 50 ul B cell stimulation cocktail is then added containing either 10 ug/ml LPS or 5 ug/ml F(ab′)2 Donkey anti-mouse IgM plus 2 ng/ml recombinant mouse IL4 in B Cell Media. Plates are incubated for 72 hours at 37° C. and 5% CO2. A volume of 15 uL of Alamar Blue reagent is added to each well and plates are incubated for 5 hours at 37 C and 5% CO2. Alamar Blue fluoresce is read at 560Ex/590Em, and IC50 or EC50 values are calculated using GraphPad Prism 5.

p110γ = p110γ (Homo sapiens (Human), UniProt P48736); assay: PI3K γ inhibition assay (TLC lipid kinase or HTRF); format: biochemical
Description: as §1, §2

Chain of p110α/p85α (P42336 whole entry): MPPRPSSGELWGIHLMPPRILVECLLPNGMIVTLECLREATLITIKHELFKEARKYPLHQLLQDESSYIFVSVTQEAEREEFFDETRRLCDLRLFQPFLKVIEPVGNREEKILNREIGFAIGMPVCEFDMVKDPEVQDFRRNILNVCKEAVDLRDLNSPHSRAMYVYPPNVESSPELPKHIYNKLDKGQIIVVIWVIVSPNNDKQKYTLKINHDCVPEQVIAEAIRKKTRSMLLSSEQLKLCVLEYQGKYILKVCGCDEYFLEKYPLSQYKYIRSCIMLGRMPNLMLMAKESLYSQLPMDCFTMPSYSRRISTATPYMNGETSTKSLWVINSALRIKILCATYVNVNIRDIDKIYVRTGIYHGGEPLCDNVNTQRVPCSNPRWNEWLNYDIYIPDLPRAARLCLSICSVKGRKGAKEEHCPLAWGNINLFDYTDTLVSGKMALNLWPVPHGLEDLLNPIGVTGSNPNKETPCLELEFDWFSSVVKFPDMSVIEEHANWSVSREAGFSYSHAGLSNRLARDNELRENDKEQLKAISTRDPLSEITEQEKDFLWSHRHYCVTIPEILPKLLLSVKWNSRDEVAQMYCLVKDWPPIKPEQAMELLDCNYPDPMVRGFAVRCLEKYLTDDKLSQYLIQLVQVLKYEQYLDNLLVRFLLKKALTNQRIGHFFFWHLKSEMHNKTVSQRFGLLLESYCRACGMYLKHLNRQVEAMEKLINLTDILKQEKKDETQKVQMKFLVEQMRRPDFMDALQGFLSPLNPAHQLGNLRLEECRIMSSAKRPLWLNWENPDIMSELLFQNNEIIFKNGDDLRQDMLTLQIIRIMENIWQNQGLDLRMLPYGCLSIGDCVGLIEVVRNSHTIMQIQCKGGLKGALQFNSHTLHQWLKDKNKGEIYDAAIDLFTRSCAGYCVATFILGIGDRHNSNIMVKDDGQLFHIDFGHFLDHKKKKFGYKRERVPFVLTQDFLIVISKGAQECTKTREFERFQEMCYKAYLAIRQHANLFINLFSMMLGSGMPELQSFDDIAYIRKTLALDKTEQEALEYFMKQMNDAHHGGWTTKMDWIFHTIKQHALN
Chain of p110α/p85α (P27986 whole entry partner): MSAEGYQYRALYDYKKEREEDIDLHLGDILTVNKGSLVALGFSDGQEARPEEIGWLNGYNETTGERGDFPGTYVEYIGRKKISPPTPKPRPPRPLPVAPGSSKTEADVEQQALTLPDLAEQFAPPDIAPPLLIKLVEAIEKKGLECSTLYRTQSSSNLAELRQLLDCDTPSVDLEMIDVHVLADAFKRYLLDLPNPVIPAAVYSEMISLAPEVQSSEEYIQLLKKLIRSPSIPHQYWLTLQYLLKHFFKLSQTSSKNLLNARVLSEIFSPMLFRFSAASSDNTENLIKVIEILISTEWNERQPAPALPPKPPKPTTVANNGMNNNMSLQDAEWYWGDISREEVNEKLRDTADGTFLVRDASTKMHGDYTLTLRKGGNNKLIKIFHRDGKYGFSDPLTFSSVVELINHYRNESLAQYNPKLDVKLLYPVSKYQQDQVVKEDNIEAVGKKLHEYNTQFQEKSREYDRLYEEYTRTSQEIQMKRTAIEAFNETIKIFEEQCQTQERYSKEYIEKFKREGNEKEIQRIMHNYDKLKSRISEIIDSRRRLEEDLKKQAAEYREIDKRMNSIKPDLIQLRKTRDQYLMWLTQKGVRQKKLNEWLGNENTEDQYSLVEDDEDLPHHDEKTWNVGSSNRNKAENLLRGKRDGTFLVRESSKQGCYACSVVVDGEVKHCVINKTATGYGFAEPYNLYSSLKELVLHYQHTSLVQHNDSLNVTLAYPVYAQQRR
Chain of p110β/p85α (P42338 whole entry, looked up): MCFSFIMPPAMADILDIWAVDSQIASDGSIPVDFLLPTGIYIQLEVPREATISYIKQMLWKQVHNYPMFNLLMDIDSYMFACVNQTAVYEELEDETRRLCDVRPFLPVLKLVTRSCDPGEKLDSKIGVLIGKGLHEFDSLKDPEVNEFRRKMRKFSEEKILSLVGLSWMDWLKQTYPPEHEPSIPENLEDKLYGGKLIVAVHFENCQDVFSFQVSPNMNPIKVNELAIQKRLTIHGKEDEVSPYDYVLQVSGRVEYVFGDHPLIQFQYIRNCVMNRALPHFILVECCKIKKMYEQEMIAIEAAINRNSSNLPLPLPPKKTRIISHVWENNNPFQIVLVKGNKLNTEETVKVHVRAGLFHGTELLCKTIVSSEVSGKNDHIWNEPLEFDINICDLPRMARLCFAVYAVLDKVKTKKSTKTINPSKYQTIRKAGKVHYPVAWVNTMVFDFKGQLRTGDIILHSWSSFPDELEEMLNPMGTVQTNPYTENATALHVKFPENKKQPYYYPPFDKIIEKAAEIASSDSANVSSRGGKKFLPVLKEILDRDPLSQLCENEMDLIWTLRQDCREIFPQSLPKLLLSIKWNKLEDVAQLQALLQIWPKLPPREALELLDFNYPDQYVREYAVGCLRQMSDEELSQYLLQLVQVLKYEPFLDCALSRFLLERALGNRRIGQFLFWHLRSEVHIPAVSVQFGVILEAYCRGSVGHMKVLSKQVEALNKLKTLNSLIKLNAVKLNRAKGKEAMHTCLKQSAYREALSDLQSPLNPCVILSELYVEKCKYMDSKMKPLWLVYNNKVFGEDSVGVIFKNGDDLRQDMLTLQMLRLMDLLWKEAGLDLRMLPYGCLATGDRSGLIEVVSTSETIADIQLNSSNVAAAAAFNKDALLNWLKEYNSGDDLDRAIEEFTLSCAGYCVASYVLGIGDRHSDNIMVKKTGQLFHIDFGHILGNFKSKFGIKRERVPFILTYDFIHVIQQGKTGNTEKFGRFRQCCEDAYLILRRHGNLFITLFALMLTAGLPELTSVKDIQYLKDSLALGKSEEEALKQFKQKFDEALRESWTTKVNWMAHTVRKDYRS
Chain of p110δ/p85α (O00329 whole entry): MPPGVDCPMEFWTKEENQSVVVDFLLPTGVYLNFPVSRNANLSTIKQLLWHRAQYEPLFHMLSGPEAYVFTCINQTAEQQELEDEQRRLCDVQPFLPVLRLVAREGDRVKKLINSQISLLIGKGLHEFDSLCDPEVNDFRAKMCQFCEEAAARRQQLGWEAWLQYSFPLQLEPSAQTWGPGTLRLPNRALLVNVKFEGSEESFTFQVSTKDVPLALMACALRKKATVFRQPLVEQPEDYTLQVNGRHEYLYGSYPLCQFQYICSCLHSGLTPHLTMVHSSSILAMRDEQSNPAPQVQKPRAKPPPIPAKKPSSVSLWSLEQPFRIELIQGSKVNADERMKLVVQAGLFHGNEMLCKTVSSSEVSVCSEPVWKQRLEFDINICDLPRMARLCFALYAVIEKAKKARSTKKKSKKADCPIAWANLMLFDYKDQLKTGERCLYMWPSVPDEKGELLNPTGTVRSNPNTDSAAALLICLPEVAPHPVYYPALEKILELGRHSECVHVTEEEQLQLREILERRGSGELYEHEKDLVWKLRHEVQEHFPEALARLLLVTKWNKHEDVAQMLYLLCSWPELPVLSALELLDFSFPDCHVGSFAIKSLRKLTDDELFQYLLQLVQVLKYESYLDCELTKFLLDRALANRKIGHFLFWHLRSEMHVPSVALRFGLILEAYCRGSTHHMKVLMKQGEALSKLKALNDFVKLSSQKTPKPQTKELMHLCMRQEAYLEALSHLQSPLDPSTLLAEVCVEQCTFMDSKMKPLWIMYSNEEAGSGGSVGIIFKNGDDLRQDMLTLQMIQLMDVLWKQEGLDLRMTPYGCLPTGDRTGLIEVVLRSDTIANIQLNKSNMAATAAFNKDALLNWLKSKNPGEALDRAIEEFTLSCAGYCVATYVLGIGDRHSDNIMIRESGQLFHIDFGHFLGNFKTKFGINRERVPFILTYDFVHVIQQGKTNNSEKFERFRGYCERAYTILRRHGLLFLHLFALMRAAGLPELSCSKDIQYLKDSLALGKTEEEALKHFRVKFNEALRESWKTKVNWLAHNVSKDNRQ
Chain of p110δ/p85α (P27986 whole entry partner): as the sequence (P27986 whole entry partner) above
Chain of p110γ (P48736 whole entry): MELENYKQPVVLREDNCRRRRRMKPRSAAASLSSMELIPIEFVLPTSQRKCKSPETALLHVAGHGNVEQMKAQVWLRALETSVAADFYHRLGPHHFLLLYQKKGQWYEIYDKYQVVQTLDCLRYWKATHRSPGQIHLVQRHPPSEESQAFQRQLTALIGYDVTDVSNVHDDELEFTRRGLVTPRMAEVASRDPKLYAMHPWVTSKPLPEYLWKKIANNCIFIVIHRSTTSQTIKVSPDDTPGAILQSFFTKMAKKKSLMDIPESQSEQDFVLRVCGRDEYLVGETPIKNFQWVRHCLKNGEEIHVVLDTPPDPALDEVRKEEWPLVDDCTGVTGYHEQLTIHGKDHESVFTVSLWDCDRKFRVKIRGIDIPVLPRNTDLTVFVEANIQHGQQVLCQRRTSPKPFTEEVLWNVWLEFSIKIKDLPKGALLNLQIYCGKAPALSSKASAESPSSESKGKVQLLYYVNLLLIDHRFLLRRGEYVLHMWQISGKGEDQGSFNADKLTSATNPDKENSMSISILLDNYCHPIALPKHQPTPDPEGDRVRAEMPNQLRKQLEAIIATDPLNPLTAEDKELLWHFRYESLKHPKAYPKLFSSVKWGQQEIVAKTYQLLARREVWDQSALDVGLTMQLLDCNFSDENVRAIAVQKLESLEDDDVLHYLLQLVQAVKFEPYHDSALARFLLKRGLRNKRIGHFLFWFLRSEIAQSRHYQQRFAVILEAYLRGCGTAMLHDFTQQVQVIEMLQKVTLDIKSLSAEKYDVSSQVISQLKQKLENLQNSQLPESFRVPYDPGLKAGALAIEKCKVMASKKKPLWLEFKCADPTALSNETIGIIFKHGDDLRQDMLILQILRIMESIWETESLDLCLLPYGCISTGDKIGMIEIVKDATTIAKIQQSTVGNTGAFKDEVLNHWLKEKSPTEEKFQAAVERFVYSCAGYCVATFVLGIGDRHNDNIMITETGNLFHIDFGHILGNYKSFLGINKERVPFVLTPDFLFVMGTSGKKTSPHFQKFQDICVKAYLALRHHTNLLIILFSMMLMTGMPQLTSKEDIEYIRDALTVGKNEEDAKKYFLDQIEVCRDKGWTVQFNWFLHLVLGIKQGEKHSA

| Structure (SMILES) | IC50 (p110δ/p85α) | IC50 (p110α/p85α) | IC50 (p110β/p85α) | IC50 (p110γ) | EC50 (Balb/c splenic B cells; Mus musculus, B-cell) | EC50 (Balb/c splenic B cells) |
| --- | --- | --- | --- | --- | --- | --- |
| Cc1cccc2cc(Cn3nc(-c4cc(O)cc(F)c4)c4c(N)ncnc43)c(N3CCCC3)nc12 [Compound 9] | < 0.1 µM | > 1 µM | > 1 µM |  | < 0.1 µM |  |
| Cc1cccc2cc(Cn3nc(-c4cccc(O)c4)c4c(N)ncnc43)c(N3CCCC3)nc12 [Compound 10] | < 0.1 µM | > 1 µM | > 1 µM |  | 0.1 to 1 µM |  |
| Nc1ncnc2c1c(-c1cc(O)cc(F)c1)nn2Cc1cc2ccccc2nc1N1CCN(CCO)CC1 [Compound 34] | < 0.1 µM |  |  | 0.1 to 1 µM | < 0.1 µM |  |
| Nc1ncnc2c1c(-c1cc(O)cc(F)c1)nn2Cc1cc2ccccc2nc1-c1ccccc1C(F)(F)F [Compound 45] | < 0.1 µM |  |  | 0.1 to 1 µM | < 0.1 µM |  |
| Nc1ncnc2c1c(-c1cccc(O)c1)nn2Cc1cc2ccccc2nc1-c1ccccc1C(F)(F)F [Compound 46] | < 0.1 µM |  |  | 0.1 to 1 µM | 0.1 to 1 µM |  |
| Nc1ncnc2c1c(-c1cccc(O)c1)nn2Cc1cc2ccccc2nc1N1CCCC1 [Compound 47] | < 0.1 µM |  |  | < 0.1 µM | < 0.1 µM |  |
| C[C@@H](O)C#Cc1nn(Cc2cc3ccccc3nc2N2CCCC2)c2ncnc(N)c12 [Compound 48] | 0.1 to 1 µM |  |  | > 1 µM | 0.1 to 1 µM |  |
| C[C@@H](O)C#Cc1nn(Cc2cc3ccccc3nc2-c2ccccc2C(F)(F)F)c2ncnc(N)c12 [Compound 49] | 0.1 to 1 µM |  |  | > 1 µM | 0.1 to 1 µM |  |
| CC(c1cc2ccccc2nc1-c1ccccc1)n1cnc2c(N)ncnc21 (stereo not drawn) [Compound 60] | > 1 µM |  |  | > 1 µM | > 1 µM |  |
| Nc1ncnc2c1c(-c1cc(O)cc(F)c1)nn2Cc1cnc2ccccc2c1 [Compound 61] | < 0.1 µM |  |  | < 0.1 µM | < 0.1 µM |  |
| Cc1ccccc1-c1nc2ccccc2n1CCn1nc(-c2cc(O)cc(F)c2)c2c(N)ncnc21 [Compound 127] | < 0.1 µM |  |  | > 1 µM | 0.1 to 1 µM |  |

More lines, main results first:

| IC50 (p110δ/p85α) | IC50 (p110α/p85α) | IC50 (p110β/p85α) | IC50 (p110γ) | Structure (SMILES) | EC50 (Balb/c splenic B cells; Mus musculus, B-cell) | EC50 (Balb/c splenic B cells) |
| --- | --- | --- | --- | --- | --- | --- |
| < 0.1 µM | < 0.1 µM |  | < 0.1 µM | CC(=O)Nc1nc2ccc(-c3nn(Cc4cc5ccccc5nc4N4CCOCC4)c4ncnc(N)c34)cc2s1 [Compound 128] | < 0.1 µM |  |
| < 0.1 µM | 0.1 to 1 µM |  | < 0.1 µM | Nc1ncnc2c1c(-c1ccc3cc[nH]c3c1)nn2Cc1cc2ccccc2nc1N1CCCC1 [Compound 147] | 0.1 to 1 µM |  |
| < 0.1 µM |  | > 1 µM | < 0.1 µM | Nc1ncnc2c1c(-c1cccc(O)c1)nn2Cc1cc2ccccc2nc1-c1ccccc1 [Compound 148] | < 0.1 µM |  |
| < 0.1 µM |  | > 1 µM | < 0.1 µM | CC(C)N(C)c1nc2ccccc2cc1Cn1nc(-c2cccc(O)c2)c2c(N)ncnc21 [Compound 150] | < 0.1 µM |  |
| < 0.1 µM |  | 0.1 to 1 µM | < 0.1 µM | CC(=O)Nc1nc2ccc(-c3nn(Cc4cc5ccccc5nc4N(C)C(C)C)c4ncnc(N)c34)cc2s1 [Compound 151] | < 0.1 µM |  |
| < 0.1 µM | < 0.1 µM |  | 0.1 to 1 µM | CC(C)N(C)c1nc2ccccc2cc1Cn1nc(-c2ccc3nc(N)sc3c2)c2c(N)ncnc21 [Compound 154] | < 0.1 µM |  |
| < 0.1 µM | > 1 µM |  | > 1 µM | Nc1nc2cc(-c3nn(Cc4cc5ccccc5nc4-c4ccccc4C(F)(F)F)c4ncnc(N)c34)ccc2[nH]1 [Compound 155] | 0.1 to 1 µM |  |
| < 0.1 µM | > 1 µM |  | < 0.1 µM | Cc1ccccc1-c1nc2ccccc2cc1Cn1nc(-c2ccc3nc(N)[nH]c3c2)c2c(N)ncnc21 [Compound 182] | 0.1 to 1 µM |  |
| < 0.1 µM | 0.1 to 1 µM |  | < 0.1 µM | Nc1nc2ccc(-c3nn(Cc4cc5ccccc5nc4N4CCCC4)c4ncnc(N)c34)cc2s1 [Compound 196] |  | 0.1 to 1 µM |
| < 0.1 µM | > 1 µM |  | > 1 µM | CN1CCN(c2ncccc2Cn2nc(-c3cc(O)cc(F)c3)c3c(N)ncnc32)CC1 [Compound 200] | 0.1 to 1 µM |  |

Source: patent US9790228B2, “Heterocyclic kinase inhibitors” (Intellikine LLC, priority 2008, dated 2017)
